ChEMBL document CHEMBL1150101, “Novel antiplatelet naphthalene from Rhamnus nakaharai” (J Nat Prod, 1995)

Legend:
[1] = Antiplatelet activity against washed rabbit platelet assessed as PAF-induced platelet aggregation at 300 uM administered 3 mins before PAF challenge; format: functional, Oryctolagus cuniculus
[2] = Antiplatelet activity against washed rabbit platelet assessed as thrombin-induced platelet aggregation at 300 uM administered 3 mins before thrombin challenge; format: functional, Oryctolagus cuniculus
[3] = Antiplatelet activity against washed rabbit platelet assessed as collagen-induced platelet aggregation at 300 uM administered 3 mins before collagen challenge; format: functional, Oryctolagus cuniculus
[4] = Antiplatelet activity against human platelet assessed as epinephrine-induced platelet aggregation at 50 uM administered 3 mins before epinephrine challenge; format: functional
[5] = Antiplatelet activity against washed rabbit platelet assessed as arachidonic acid-induced platelet aggregation; format: functional, cell-based; conditions: Oryctolagus cuniculus
[6] = Antiplatelet activity against human platelet assessed as epinephrine-induced platelet aggregation at 20 uM administered 3 mins before epinephrine challenge; format: functional
[7] = Antiplatelet activity against washed rabbit platelet assessed as arachidonic acid-induced platelet aggregation at 300 uM administered 3 mins before arachidonic acid challenge; format: functional, Oryctolagus cuniculus
[8] = Antiplatelet activity against washed rabbit platelet assessed as arachidonic acid-induced platelet aggregation at 50 uM administered 3 mins before arachidonic acid challenge; format: functional, Oryctolagus cuniculus
[9] = Antiplatelet activity against washed rabbit platelet assessed as PAF-induced platelet aggregation at 50 uM administered 3 mins before PAF challenge; format: functional, Oryctolagus cuniculus
[10] = Antiplatelet activity against washed rabbit platelet assessed as thrombin-induced platelet aggregation at 50 uM administered 3 mins before thrombin challenge; format: functional, Oryctolagus cuniculus
[11] = Antiplatelet activity against washed rabbit platelet assessed as collagen-induced platelet aggregation at 50 uM administered 3 mins before collagen challenge; format: functional, Oryctolagus cuniculus
[12] = Antiplatelet activity against human platelet assessed as epinephrine-induced platelet aggregation administered 3 mins before epinephrine challenge; format: functional
[13] = Antiplatelet activity against washed rabbit platelet assessed as thrombin-induced platelet aggregation at 400 uM administered 3 mins before thrombin challenge; format: functional, Oryctolagus cuniculus
[14] = Antiplatelet activity against washed rabbit platelet assessed as PAF-induced platelet aggregation at 400 uM administered 3 mins before PAF challenge; format: functional, Oryctolagus cuniculus
[15] = Antiplatelet activity against human platelet assessed as epinephrine-induced platelet aggregation at 100 uM administered 3 mins before epinephrine challenge; format: functional
[16] = Antiplatelet activity against washed rabbit platelet assessed as arachidonic acid-induced platelet aggregation at 400 uM administered 3 mins before arachidonic acid challenge; format: functional, Oryctolagus cuniculus
[17] = Antiplatelet activity against washed rabbit platelet assessed as collagen-induced platelet aggregation at 400 uM administered 3 mins before collagen challenge; format: functional, Oryctolagus cuniculus

| SMILES | Activity [1] [%] | Activity [2] [%] | Activity [3] [%] | Activity [7] [%] | further results |
| --- | --- | --- | --- | --- | --- |
| COc1cc(OC(C)=O)cc2cc(C)c(C(C)=O)c(OC(C)=O)c12 [ISOTORACHRYSONE PERACETATE] | 86.7 | 82.7 | 16.8 | 0 | Activity [4]: 13%; IC50 [5]: 5.1 µM; Activity [6]: 83% |
| COc1c(-c2ccc(O)c(O)c2)oc2cc(O)cc(O)c2c1=O [3-O-METHYLQUERCETIN] | 50.1 | 81.2 | 5.4 | 0 |  |
| CC(=O)Oc1ccccc1C(=O)O [ASPIRIN] |  |  |  |  | Activity [8]: 0%; Activity [9]: 90.5%; Activity [10]: 91.9%; Activity [11]: 85.4%; Activity [12]: 39.6% |
| COc1cc(O)c2c(O)c3c(cc2c1)COC3=O | 80 | 88.1 | 41.7 | 22.1 |  |
| COc1c(-c2ccc(OC(C)=O)c(OC(C)=O)c2)oc2cc(OC(C)=O)cc(OC(C)=O)c2c1=O | 0 | 64.9 | 0 | 0 |  |
| COc1cc(O)cc2cc(C)c(C(C)=O)c(O)c12 [ISOTORACHRYSONE] |  |  |  |  | Activity [13]: 92.2%; Activity [14]: 94.2%; Activity [15]: 20.2%; Activity [16]: 0%; Activity [17]: 39.1% |
